Among the data in PubChem BioAssay AID1259407 (Chemical Carcinogenesis Research Information System (CCRIS), 2018) are mutagenic call values, retold here.

In this data set the test system is CCRIS mutagenicity, Ames/micronucleus/aberration tests. Kind of data set: CCRIS mutagenicity studies.
Setting [1] is: Test System: AMES SALMONELLA TYPHIMURIUM, Strain/Indicator: TA98, Metabolic Activation: NONE, Method: STANDARD PLATE.
Where [2] appears, read: Test System: AMES SALMONELLA TYPHIMURIUM, Strain/Indicator: TA98, Metabolic Activation: RAT, LIVER, S-9, AROCLOR 1254, Method: STANDARD PLATE.
[3] abbreviates: Test System: AMES SALMONELLA TYPHIMURIUM, Strain/Indicator: TA100, Metabolic Activation: NONE, Method: STANDARD PLATE.
Where [4] appears, read: Test System: AMES SALMONELLA TYPHIMURIUM, Strain/Indicator: TA100, Metabolic Activation: RAT, LIVER, S-9, AROCLOR 1254, Method: STANDARD PLATE.
Setting [5] is: Test System: AMES SALMONELLA TYPHIMURIUM, Strain/Indicator: TA1535, Metabolic Activation: NONE, Method: STANDARD PLATE.
[6] abbreviates: Test System: AMES SALMONELLA TYPHIMURIUM, Strain/Indicator: TA1535, Metabolic Activation: RAT, LIVER, S-9, AROCLOR 1254, Method: STANDARD PLATE.
The mark [7] stands for this setting: Test System: AMES SALMONELLA TYPHIMURIUM, Strain/Indicator: TA1537, Metabolic Activation: NONE, Method: STANDARD PLATE.
Setting [8] is: Test System: AMES SALMONELLA TYPHIMURIUM, Strain/Indicator: TA1537, Metabolic Activation: RAT, LIVER, S-9, AROCLOR 1254, Method: STANDARD PLATE.

The structures appear in SMILES notation. Calls of active or inactive are those of the source. How the calls were made is not given here.

As to `Cc1ccc(N=O)cc1[N+](=O)[O-]`, the mutagenic call is, setting by setting: (Test System: AMES SALMONELLA TYPHIMURIUM, Strain/Indicator: TA98, Metabolic Activation: NONE, Method: SUSPENSION/PLATE) “inactive; negative”; (Test System: AMES SALMONELLA TYPHIMURIUM, Strain/Indicator: TA98, Metabolic Activation: RAT, LIVER, S-9, PHENOBARBITAL AND 5,6-BENZOFLAVONE, Method: SUSPENSION/PLATE) “inactive; negative”; (Test System: AMES SALMONELLA TYPHIMURIUM, Strain/Indicator: TA100, Metabolic Activation: NONE, Method: SUSPENSION/PLATE) “inactive; negative”; (Test System: AMES SALMONELLA TYPHIMURIUM, Strain/Indicator: TA100, Metabolic Activation: RAT, LIVER, S-9, PHENOBARBITAL AND 5,6-BENZOFLAVONE, Method: SUSPENSION/PLATE) “inactive; negative”.
On to `C[C@H](CCC(=O)O)[C@H]1CC[C@H]2[C@@H]3C(=O)C[C@@H]4C[C@H](O)CC[C@]4(C)[C@H]3CC[C@]12C`, for which the mutagenic call was “inactive; negative” (Test System: AMES SALMONELLA TYPHIMURIUM, Strain/Indicator: TA98, Metabolic Activation: NONE, Method: FLUCTUATION TEST); “inactive; negative” (Test System: AMES SALMONELLA TYPHIMURIUM, Strain/Indicator: TA98, Metabolic Activation: NONE, Method: PREINCUBATION); “inactive; negative” (Test System: AMES SALMONELLA TYPHIMURIUM, Strain/Indicator: TA98, Metabolic Activation: RAT, LIVER, S-9, PCB, Method: PREINCUBATION); “inactive; negative” (Test System: AMES SALMONELLA TYPHIMURIUM, Strain/Indicator: TA100, Metabolic Activation: NONE, Method: FLUCTUATION TEST).
As to `CC1CCC(C(C)C)C(=O)C1` (stereo not given), the mutagenic call (Test System: AMES SALMONELLA TYPHIMURIUM, Strain/Indicator: TA97, Metabolic Activation: NONE, Method: STANDARD PLATE) was “active; positive”; the mutagenic call under setting [1] is “inactive; negative”; the mutagenic call under setting [2] is “inactive; negative”; the mutagenic call under setting [3] was “inactive; negative”; the mutagenic call under setting [4] is “inactive; negative”; the mutagenic call under setting [5] is “inactive; negative”. Moreover, the mutagenic call is, setting by setting: under setting [6], “inactive; negative”; under setting [7], “inactive; negative”; under setting [8], “inactive; negative”.
As for `O=C(O)/C=C/c1ccc(O)c(O)c1`, the mutagenic call was “inactive; negative” (Test System: AMES SALMONELLA TYPHIMURIUM, Strain/Indicator: TA98, Metabolic Activation: HAMSTER, LIVER, S-9, AROCLOR 1254, Method: STANDARD PLATE); “inactive; negative” under setting [1]; “inactive; negative” under setting [2]; “inactive; negative” (Test System: AMES SALMONELLA TYPHIMURIUM, Strain/Indicator: TA100, Metabolic Activation: HAMSTER, LIVER, S-9, AROCLOR 1254, Method: STANDARD PLATE); “inactive; negative” under setting [3]; “inactive; negative” under setting [4]. For the same compound, the mutagenic call by setting is: (Test System: AMES SALMONELLA TYPHIMURIUM, Strain/Indicator: TA1535, Metabolic Activation: HAMSTER, LIVER, S-9, AROCLOR 1254, Method: STANDARD PLATE) “inactive; negative”; under setting [5], “inactive; negative”; under setting [6], “inactive; negative”; (Test System: AMES SALMONELLA TYPHIMURIUM, Strain/Indicator: TA1537, Metabolic Activation: HAMSTER, LIVER, S-9, AROCLOR 1254, Method: STANDARD PLATE) “inactive; negative”; under setting [7], “inactive; negative”; under setting [8], “inactive; negative”. In addition, the mutagenic call runs as follows: (Test System: AMES SALMONELLA TYPHIMURIUM, Strain/Indicator: TA1538, Metabolic Activation: HAMSTER, LIVER, S-9, AROCLOR 1254, Method: STANDARD PLATE) “inactive; negative”; (Test System: AMES SALMONELLA TYPHIMURIUM, Strain/Indicator: TA1538, Metabolic Activation: NONE, Method: STANDARD PLATE) “inactive; negative”; (Test System: AMES SALMONELLA TYPHIMURIUM, Strain/Indicator: TA1538, Metabolic Activation: RAT, LIVER, S-9, AROCLOR 1254, Method: STANDARD PLATE) “inactive; negative”; (Test System: MOUSE LYMPHOMA, Strain/Indicator: L5178Y (TK+/TK-), Metabolic Activation: NONE, Method: SUSPENSION/PLATE) “active; positive. reevaluation of results: positive”; (Test System: MOUSE LYMPHOMA, Strain/Indicator: L5178Y (TK+/TK-), Metabolic Activation: RAT, LIVER, S-9, AROCLOR 1254, Method: SUSPENSION/PLATE) “inactive; negative; reevaluation of results: negative”.
For the compound `CC(=O)C(=O)c1ccccc1`, the mutagenic call under setting [3] was “inactive; negative”.
As to `C1CCC2OCCOCCOCCOCCOC3CCCCC3OCCOCCOCCOCCOC2C1` (stereo not given), the mutagenic call reads like this: under setting [1], “inactive; negative”; under setting [2], “inactive; negative”; under setting [3], “inactive; negative”; under setting [4], “inactive; negative”; (Test System: AMES SALMONELLA TYPHIMURIUM, Strain/Indicator: TA1530, Metabolic Activation: NONE, Method: STANDARD PLATE) “inactive; negative”; (Test System: AMES SALMONELLA TYPHIMURIUM, Strain/Indicator: TA1530, Metabolic Activation: RAT, LIVER, S-9, AROCLOR 1254, Method: STANDARD PLATE) “inactive; negative”. Also, the mutagenic call is “inactive; negative” under setting [7] and “inactive; negative” under setting [8].
`O=C1c2ccccc2-c2c1ccc1ccc3ccccc3c21`: the mutagenic call under setting [4] is “inactive; negative”.
For `COc1nc(N)nc2c1ncn2[C@H]1C[C@H](O)[C@@H](COP(=O)(O)OP(=O)(O)OP(=O)(O)O)O1`, where the note is “Test System: CHINESE HAMSTER OVARY, Strain/Indicator: CHO-K1 (HGPRT), Metabolic Activation: NONE”, the mutagenic call was “inactive; negative”.
